What is called IC50 is the point on the concentration scale where inhibition reaches its midpoint.

This experiment deals with DNA (cytosine-5)-methyltransferase 1 (Homo sapiens, UniProt P26358). The experiment can be described thus: DNMT1 Inhibition Assay. As to the method:
The DNMT1 assays were carried to determine the IC50 with transition state analogs. The reaction (100 μL) containing 50 mM Tris-HCl pH 8.0, 100 mM KCl, 50 ug/mL BSA, 2 mM DTT, 1 μM freshly prepared [Me-3H]-SAM, 1 μM 26 bp hemimethylated DNA substrate and varying concentrations of each inhibitor ([…]), incubated at 37° C. with 100 nM DNMT1. The reaction fractions (50 μL) were taken at 2 hours. The methylated DNA was purified by using Micro Bio-spin P-30 columns (Bio-Rad). Purified samples were mixed with 10 mL of scintillation liquid (PerkinElmer), and counted for radioactivity in a Tricarb 2910 TR scintillation counter (PerkinElmer). The values obtained in the absence of DNMT1 in the reaction were used as controls. The assay data were analyzed using GraphPad Prism for IC50 calculations.

Sequence of DNA (cytosine-5)-methyltransferase 1 (P26358 whole entry): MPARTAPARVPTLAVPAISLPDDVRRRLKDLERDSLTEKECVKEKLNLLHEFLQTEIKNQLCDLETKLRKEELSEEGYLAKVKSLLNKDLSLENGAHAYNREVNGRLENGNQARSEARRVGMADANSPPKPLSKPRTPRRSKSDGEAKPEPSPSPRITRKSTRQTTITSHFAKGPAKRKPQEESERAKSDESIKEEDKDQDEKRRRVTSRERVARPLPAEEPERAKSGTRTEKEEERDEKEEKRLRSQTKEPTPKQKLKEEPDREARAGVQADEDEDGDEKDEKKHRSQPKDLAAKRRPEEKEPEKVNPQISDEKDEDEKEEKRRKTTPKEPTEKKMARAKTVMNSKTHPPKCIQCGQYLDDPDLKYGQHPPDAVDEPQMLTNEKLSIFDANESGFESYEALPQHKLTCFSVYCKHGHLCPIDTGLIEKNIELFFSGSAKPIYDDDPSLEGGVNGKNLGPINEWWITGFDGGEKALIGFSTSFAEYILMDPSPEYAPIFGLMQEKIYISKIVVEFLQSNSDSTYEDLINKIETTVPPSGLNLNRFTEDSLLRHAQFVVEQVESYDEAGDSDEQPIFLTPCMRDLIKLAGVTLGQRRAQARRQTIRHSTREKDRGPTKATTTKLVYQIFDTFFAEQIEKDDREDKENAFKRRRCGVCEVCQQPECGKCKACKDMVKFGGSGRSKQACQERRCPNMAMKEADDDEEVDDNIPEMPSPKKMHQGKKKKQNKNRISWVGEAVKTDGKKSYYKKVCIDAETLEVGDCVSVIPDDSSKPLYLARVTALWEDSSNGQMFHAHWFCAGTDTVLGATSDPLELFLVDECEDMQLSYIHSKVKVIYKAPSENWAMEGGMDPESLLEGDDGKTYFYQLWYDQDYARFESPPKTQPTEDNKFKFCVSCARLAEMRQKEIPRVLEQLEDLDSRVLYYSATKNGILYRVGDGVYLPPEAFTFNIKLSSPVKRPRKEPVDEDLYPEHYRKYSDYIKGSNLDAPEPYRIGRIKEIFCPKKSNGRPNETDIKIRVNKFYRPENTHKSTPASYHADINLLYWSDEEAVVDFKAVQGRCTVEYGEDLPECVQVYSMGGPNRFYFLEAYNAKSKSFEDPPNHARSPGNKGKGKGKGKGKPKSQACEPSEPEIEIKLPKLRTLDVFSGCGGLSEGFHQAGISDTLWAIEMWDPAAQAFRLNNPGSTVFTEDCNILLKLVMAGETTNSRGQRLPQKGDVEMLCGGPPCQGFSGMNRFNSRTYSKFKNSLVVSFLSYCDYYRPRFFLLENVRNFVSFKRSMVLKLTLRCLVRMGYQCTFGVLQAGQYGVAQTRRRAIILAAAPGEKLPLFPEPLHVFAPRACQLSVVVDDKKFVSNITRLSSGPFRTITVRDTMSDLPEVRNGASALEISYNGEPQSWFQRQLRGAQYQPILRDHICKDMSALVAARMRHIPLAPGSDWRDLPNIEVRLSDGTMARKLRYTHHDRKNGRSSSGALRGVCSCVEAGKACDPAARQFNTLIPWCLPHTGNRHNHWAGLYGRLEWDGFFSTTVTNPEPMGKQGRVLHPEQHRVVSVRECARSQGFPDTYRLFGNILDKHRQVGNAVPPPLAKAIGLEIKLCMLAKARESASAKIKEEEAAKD

For `Nc1nc(=O)n([C@H]2C[C@H](O)[C@@H](CO)O2)cc1CNC[C@H]1O[C@@H](n2cnc3c(N)ncnc32)[C@H](O)[C@@H]1O` [US11518779, Compound 10], the half-maximal inhibitory concentration (IC50) is 1100 nM.

Take `Nc1nc(=O)n([C@H]2C[C@H](O)[C@@H](CO)O2)cc1CSCCC[C@H]1O[C@@H](n2cnc3c(N)ncnc32)[C@H](O)[C@@H]1O` [US11518779, Compound 21]: the midpoint of inhibition, the IC50, lay at 3600 nM.
